In assay [1] the target is T1, E. coli alkaline phosphatase, trypsin-modified (tm-AP; NH2-terminal 10 or 11 amino acids removed, cleaved at Arg-10 Ala-11) (Escherichia coli, UniProt P00634).
T1 construct: trypsin cleaves the Arg-10 Ala-11 bond leaving Ala as the NH2 -terminal residue; made in house; host or cells: E. coli strain CW3747 enzyme treated with trypsin, purified by chromatofocusing
Kind of assay: Kinetic constants, hydrolysis of PNPP to p-nitrophenol. The following applies: trypsin-modified enzyme, 1M Tris HCl. The assay is classed as biochemical.
Experimental: The enzyme was assayed as described under "Materials and Methods" in Example I except that the assay solution contained K2 HPO4 at the indicated concentration and PNPP at concentrations ranging from 5×10^-6 to 1×10^-3 M.
Enzyme and Chemicals - Alkaline phosphatase was isolated from E. coli strain CW3747 (A.T.C.C. 27256) according to the method described by Applebury et al. (Applebury, M. L. et al. J. Biol. Chem. 245: 4968 (1970)). Enzyme concentrations were determined spectrophotometrically at 278 nm using E1 cm^0.1% =0.72. Molar calculations were based on Mr =94,000. The enzyme activity was assayed as the rate of hydrolysis of PNPP^1 to p-nitrophenol. The reaction was monitored by following the increase in absorbance at 410 nm (Δε=1.62×10^4M^-1 cm^-1) in a solution of 1×10^-3 M PNPP, 1M Tris HCl, 10 mM MgCl2, 5×10^-5 M ZnCl2, pH 8.0, 20° C. […] Trypsin, PNPP, and carboxypeptidase Y were obtained from Sigma. […] All other chemicals employed were reagent grade.
To prepare trypsin-modified alkaline phosphatase, native alkaline phosphatase (3 mg/ml) was treated with 10% (w/w) trypsin for 60 min at 20° C. and the major protein peak was isolated using the above chromatofocusing procedure.

The target in assay [2] is T2, E. coli alkaline phosphatase, native (strain CW3747) (Escherichia coli, UniProt P00634).
T2 construct: The monomer is an unglycosylated single chain of 449 amino acids in its mature form; made in house; host or cells: E. coli strain CW3747 (ATCC 27256), enzyme isolated by the method of Applebury et al. 1970
T2 sequence (P00634 23-471): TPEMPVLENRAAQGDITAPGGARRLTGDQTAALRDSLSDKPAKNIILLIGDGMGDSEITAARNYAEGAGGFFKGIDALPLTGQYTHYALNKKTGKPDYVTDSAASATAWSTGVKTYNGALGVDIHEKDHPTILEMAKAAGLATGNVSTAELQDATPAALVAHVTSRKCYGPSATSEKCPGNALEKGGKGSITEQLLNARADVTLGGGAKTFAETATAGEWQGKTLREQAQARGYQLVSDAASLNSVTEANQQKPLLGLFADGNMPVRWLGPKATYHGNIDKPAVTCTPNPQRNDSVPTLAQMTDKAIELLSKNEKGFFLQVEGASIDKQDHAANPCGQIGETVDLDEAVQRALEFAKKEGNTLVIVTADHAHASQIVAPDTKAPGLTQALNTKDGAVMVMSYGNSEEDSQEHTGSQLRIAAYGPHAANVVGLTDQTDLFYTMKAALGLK
The description is as above. The assay is classed as biochemical. As to conditions: native enzyme, 1M Tris HCl.
Experimental: B, Native alkaline phosphatase, [K2 HPO4 ]-0 (0), 1×10^-5 M ( ), 3×10^-5 M (Δ). The enzyme was assayed as described under "Materials and Methods" in Example I except that the assay solution contained K2 HPO4 at the indicated concentration and PNPP at concentrations ranging from 5×10^-6 to 1×10^-3 M.
Enzyme and Chemicals - Alkaline phosphatase was isolated from E. coli strain CW3747 (A.T.C.C. 27256) according to the method described by Applebury et al. (Applebury, M. L. et al. J. Biol. Chem. 245: 4968 (1970)). Enzyme concentrations were determined spectrophotometrically at 278 nm using E1 cm^0.1% =0.72. Molar calculations were based on Mr =94,000. The enzyme activity was assayed as the rate of hydrolysis of PNPP^1 to p-nitrophenol. The reaction was monitored by following the increase in absorbance at 410 nm (Δε=1.62×10^4M^-1 cm^-1) in a solution of 1×10^-3 M PNPP, 1M Tris HCl, 10 mM MgCl2, 5×10^-5 M ZnCl2, pH 8.0, 20° C.

Setting [3] is: 10 mM MgCl2, 5×10^-5 M ZnCl2, pH 8.0, 20° C, PNPP 5×10^-6 to 1×10^-3 M.

Molecules are shown by their SMILES.

T1 sequence (P00634 33-471): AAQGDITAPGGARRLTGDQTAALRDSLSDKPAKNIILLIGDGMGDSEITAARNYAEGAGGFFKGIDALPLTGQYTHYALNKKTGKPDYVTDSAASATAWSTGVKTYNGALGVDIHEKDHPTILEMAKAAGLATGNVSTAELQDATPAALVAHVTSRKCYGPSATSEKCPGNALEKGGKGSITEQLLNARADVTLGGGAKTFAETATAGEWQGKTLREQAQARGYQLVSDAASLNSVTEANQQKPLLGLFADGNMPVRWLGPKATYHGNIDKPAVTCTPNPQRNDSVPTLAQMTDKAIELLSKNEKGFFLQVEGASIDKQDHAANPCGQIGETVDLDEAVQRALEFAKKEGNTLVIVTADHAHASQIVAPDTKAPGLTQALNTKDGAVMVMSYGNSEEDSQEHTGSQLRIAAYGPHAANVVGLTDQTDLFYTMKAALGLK

Regarding `O=[N+]([O-])c1ccc(OP(=O)(O)O)cc1` [PNPP, p-nitrophenolphosphate], the Michaelis constant (Km) (in general, the substrate concentration at which the rate is half of its maximum) in assay [1] (setting [3]) was determined as 19 µM; in assay [2] (setting [3]) it was 40 µM. Further, the “Vmax (PNPP)” value in assay [1] (pH 8.0, 20° C) turned out to be 2000 µmol/h/mg; in assay [2] (pH 8.0, 20° C) it was 2500 µmol/h/mg.
